Legend:
Type in all cases: in vivo
Kochia (Kochia scoparia) = assay: Test A preemergence; details: Bassia scoparia, pre-emergence, 240 h, preemergence, 0 to 100 scale where 0 is no effect and 100 is complete control, read-out: Kochia plant response rating
Summary of the method: (§1)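 In a loam soil and sand blend, planted seeds got a preemergence directed soil spray, and young plants at the one- to two-leaf stage, 2–10 cm high, got a postemergence application; ~10 d greenhouse hold; injury rated visually, 0 = none, 100 = complete control.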

[1] = test system: barnyardgrass (Echinochloa crus-galli); assay: Test A preemergence; details: Echinochloa crus-galli, pre-emergence, 240 h, preemergence, 0 to 100 scale where 0 is no effect and 100 is complete control, read-out: Barnyardgrass plant response rating
Summary of the method: as §1

[2] = test system: ragweed (common ragweed, Ambrosia elatior); assay: Test A preemergence; details: Ambrosia artemisiifolia, pre-emergence, 240 h, preemergence, 0 to 100 scale where 0 is no effect and 100 is complete control, read-out: Ragweed plant response rating
Summary of the method: as §1

[3] = test system: ryegrass, Italian (Italian ryegrass, Lolium multiflorum); assay: Test A preemergence; details: Lolium multiflorum, pre-emergence, 240 h, preemergence, 0 to 100 scale where 0 is no effect and 100 is complete control, read-out: Ryegrass, Italian plant response rating
Summary of the method: as §1

[4] = test system: giant foxtail (Setaria faberii); assay: Test A preemergence; details: Setaria faberi, pre-emergence, 240 h, preemergence, 0 to 100 scale where 0 is no effect and 100 is complete control, read-out: Foxtail, Giant plant response rating
Summary of the method: as §1

[5] = test system: pigweed (Amaranthus retroflexus); assay: Test A preemergence; details: Amaranthus retroflexus, pre-emergence, 240 h, preemergence, 0 to 100 scale where 0 is no effect and 100 is complete control, read-out: Pigweed plant response rating
[6] = test system: blackgrass (Alopecurus myosuroides); assay: Test A postemergence; details: Alopecurus myosuroides, post-emergence, 240 h, postemergence
Summary of the method: as §1

[7] = test system: ragweed (common ragweed, Ambrosia elatior); assay: Test A postemergence; details: Ambrosia artemisiifolia, post-emergence, 240 h, postemergence
Summary of the method: as §1

[8] = test system: ryegrass, Italian (Italian ryegrass, Lolium multiflorum); assay: Test A postemergence; details: Lolium multiflorum, post-emergence, 240 h, postemergence
Summary of the method: as §1

corn (Zea mays) = assay: Test A postemergence; details: Zea mays, post-emergence, 240 h, postemergence
Summary of the method: as §1

[9] = test system: pigweed (Amaranthus retroflexus); assay: Test A postemergence; details: Amaranthus retroflexus, post-emergence, 240 h, postemergence
Summary of the method: as §1

[10] = test system: sedge, umbrella (small-flower umbrella sedge, Cyperus difformis); assay: Test B flooded paddy test; details: Cyperus difformis, 250 g ai/ha, Flood; 0 to 100 scale where 0 is no effect and 100 is complete control; read-out: Sedge, Umbrella plant response rating
Summary of the method: (§2)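 Greenhouse paddy pots with 2-leaf stage plants received compound by direct addition to floodwater 3 cm deep, kept at that level. Scored visually at 13–15 d versus controls (0 no effect; 100 complete control).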

[11] = test system: barnyardgrass (Echinochloa crus-galli); assay: Test B flooded paddy test; details: Echinochloa crus-galli, 250 g ai/ha, Flood; 0 to 100 scale where 0 is no effect and 100 is complete control; read-out: Barnyardgrass plant response rating
Summary of the method: as §2

[12] = test system: ducksalad (Heteranthera limosa); assay: Test B flooded paddy test; details: Heteranthera limosa, 250 g ai/ha, Flood; 0 to 100 scale where 0 is no effect and 100 is complete control; read-out: Ducksalad plant response rating
Summary of the method: as §2

rice (Oryra sativa) = assay: Test B flooded paddy test; details: Oryza sativa, 250 g ai/ha, Flood; 0 to 100 scale where 0 is no effect and 100 is complete control; read-out: Rice plant response rating
Summary of the method: as §2

[13] = 125 g ai/ha, visual injury rating, approximately 10 d

Cc1c(F)cccc1NC(=O)[C@H]1C(=O)N(C)C[C@@H]1c1ccc(F)cc1 [Compound 1235]
pest or weed control at 125 g/ha (Kochia (Kochia scoparia); [13]): 60%
pest or weed control at 500 g/ha (Kochia (Kochia scoparia); 500 g ai/ha): 80%
pest or weed control at 125 g/ha [1, 13]: 100%
pest or weed control at 500 g/ha ([1]; 500 g ai/ha): 100%
pest or weed control at 125 g/ha [2, 13]: 70%
pest or weed control at 500 g/ha ([2]; 500 g ai/ha): 90%
pest or weed control at 125 g/ha [3, 13]: 50%
pest or weed control at 500 g/ha ([3]; 500 g ai/ha): 60%
pest or weed control at 125 g/ha [4, 13]: 100%
pest or weed control at 500 g/ha ([4]; 500 g ai/ha): 100%
pest or weed control at 125 g/ha [5, 13]: 30%
pest or weed control at 500 g/ha ([5]; 500 g ai/ha): 90%
pest or weed control at 125 g/ha ([6]; 125 g ai/ha, visual injury vs untreated controls after approx. 10 d, 0 = no effect, 100 = complete control, read-out: Blackgrass plant response rating (0 to 100 scale)): 30%
pest or weed control at 500 g/ha ([6]; 500 g ai/ha, 0 to 100 scale, 0 is no effect, 100 is complete control, read-out: Blackgrass plant response rating): 40%
pest or weed control at 125 g/ha ([7]; 125 g ai/ha, visual injury vs untreated controls after approx. 10 d, 0 = no effect, 100 = complete control, read-out: Ragweed plant response rating (0 to 100 scale)): 0%
pest or weed control at 500 g/ha ([7]; 500 g ai/ha, 0 to 100 scale, 0 is no effect, 100 is complete control, read-out: Ragweed plant response rating): 30%
pest or weed control at 125 g/ha ([8]; 125 g ai/ha, visual injury vs untreated controls after approx. 10 d, 0 = no effect, 100 = complete control, read-out: Ryegrass, Italian plant response rating (0 to 100 scale)): 0%
pest or weed control at 500 g/ha ([8]; 500 g ai/ha, 0 to 100 scale, 0 is no effect, 100 is complete control, read-out: Ryegrass, Italian plant response rating): 30%
plant injury at 125 g/ha (corn (Zea mays); 125 g ai/ha, visual injury vs untreated controls after approx. 10 d, 0 = no effect, 100 = complete control, read-out: Corn plant response rating (0 to 100 scale)): 70%
plant injury at 500 g/ha (corn (Zea mays); 500 g ai/ha, 0 to 100 scale, 0 is no effect, 100 is complete control, read-out: Corn plant response rating): 100%
pest or weed control at 125 g/ha ([9]; 125 g ai/ha, visual injury vs untreated controls after approx. 10 d, 0 = no effect, 100 = complete control, read-out: Pigweed plant response rating (0 to 100 scale)): 0%
pest or weed control at 500 g/ha ([9]; 500 g ai/ha, 0 to 100 scale, 0 is no effect, 100 is complete control, read-out: Pigweed plant response rating): 50%
pest or weed control at 250 g/ha [10]: 75%
pest or weed control at 250 g/ha [11]: 100%
pest or weed control at 250 g/ha [12]: 90%
pest or weed control at 250 g/ha (rice (Oryra sativa)): 80%
